Structures can show the parent of a compound that is named as a salt.
Compound | melting point
CCN1CCN(c2nc(-c3ccc(OCCO)cc3)cc3cccnc23)CC1 (as salt: hydrochloride) [Example 245, 8-(1-ethylpiperazin-4-yl)-6-[4-(2-hydroxyethoxy)phenyl]-1,7-naphthyridine Dihydrochloride] | 137 to 143 °C
CCN1CCN(c2nc(-c3ccc(C(N)=O)cc3)cc3ccccc23)CC1 (as salt: hydrochloride) [Example 408, 1-(4-ethylpiperazin-1-yl)-3-(4-carbamoylphenyl)isoquinoline] | 197 to 199 °C
CCN1CCN(c2nc(-c3ccc(OCCOC)nc3)cc3ccsc23)CC1 (as salt: hydrochloride) [Example 269, 5-[2-(2-methoxyethoxy)pyridin-5-yl]-7-(4-ethylpiperazin-1-yl)-thieno[2,3-c]pyridine hydrochloride] | 116 to 118 °C
CCN1CCN(c2nc(-c3ccc(CCCO)cc3)cc3ccoc23)CC1 (as salt: hydrochloride) [Example 299, 7-(1-ethylpiperazin-4-yl)-5-[4-(3-hydroxypropyl)phenyl]furo[2,3-c]pyridine dihydrochloride] | 126 to 130 °C
CCN1CCN(c2nc(-c3ccc(S(C)(=O)=O)cc3)cc3ccsc23)CC1 (as salt: hydrochloride) [Example 445, 7-(4-ethylpiperazin-1-yl)-5-(4-methanesulfonylphenyl)thieno)[2,3-c]pyridine dihydrochloride] | 222.5 to 225 °C (dec.)
CCN1CCN(c2nc(-c3ccc(OCCO)cc3)cc3ccsc23)CC1 (as salt: hydrochloride) [Example 259, 7-(4-ethylpiperazin-1-yl)-5-(4-hydroxyethoxyphenyl)thieno[2,3-c]pyridine Hydrochloride] | 135 to 136 °C
CCN1CCN(c2nc(-c3ccc4c(c3)CCC4O)cc3ccccc23)CC1 (stereo not drawn) (as salt: oxalate) [Example 415, 1-(4-ethylpiperazin-1-yl)-3-(1-hydroxyindan-5-yl)isoquinoline] | 193 to 195 °C
CCN1CCN(c2nc(-c3ccc(OCCO)cn3)cc3ccccc23)CC1 (as salt: hydrochloride) [Example 124, 1-(1-Ethylpiperazin-4-yl)-3-[5-(2-Hydroxyethoxy)Pyridin-2-yl]Isoquinoline] | 110 to 115 °C
CCN1CCN(c2nc(-c3cc(OC)ccc3OC)cc3ccccc23)CC1.Cl | 189 to 191 °C
CN1CCN(c2nc(-c3ccc(OCCO)cc3)cc3ccccc23)CC1 (as salt: hydrochloride) [Example 3, 1-(1-methylpiperazin-4-yl)-3-[4-(2-hydroxyethoxy)phenyl]isoquinoline] | 131 to 144 °C
CCCC(=O)Nc1ccc(-c2cc3ccccc3c(N3CCN(CC)CC3)n2)cn1 (as salt: hydrochloride) [Example 128, 3-(2-propylcarbonylaminopyridin-5-yl)-1-(4-ethylpiperazin-1-yl)isoquinoline hydrochloride] | 168 to 171 °C
CCN1CCN(c2nc(-c3ccc(OC)cc3)cc3cccc(OC)c23)CC1 (as salt: hydrochloride) | 237 to 241 °C
CCC(O)c1ccc(-c2cc3ccccc3c(N3CCN(CC)CC3)n2)cc1 (stereo not drawn) (as salt: hydrochloride) [Example 19, 1-(4-ethylpiperazin-1-yl)-3-[4-(1-hydroxypropyl)phenyl]isoquinoline hydrochloride] | 143 to 144 °C
CCN1CCN(c2nc(-c3ccc(C(O)C(C)(C)CO)cc3)cc3ccccc23)CC1 (stereo not drawn) (as salt: hydrochloride) [Example 391, 1-(4-Ethylpiperazin-1-yl)-3-[4-(1,3-Dihydroxy-2,2-Dimethylpropyl)Phenyl]Isoquinoline Dihydrochloride] | 150.5 to 151.5 °C
CCCCS(=O)(=O)Nc1ccc(-c2cc3ccccc3c(N3CCN(CC)CC3)n2)cc1 (as salt: hydrochloride) [Example 73, 3-(4-Butylsulfonylaminophenyl)-1-(4-Ethylpiperazin-1-Yl)Isoquinoline Hydrochloride] | 160 to 163 °C
CCN1CCN(c2nc(-c3ccc(OC)cc3)cc3c(C)cccc23)CC1 (as salt: hydrochloride) | 249 to 253 °C
CCNC(=O)Cc1ccc(-c2cc3ccccc3c(N3CCN(CC)CC3)n2)cc1 (as salt: hydrochloride) [Example 87, 3-(4-Ethylaminocarbonylmethylphenyl)-1-(4-ethylpiperazin-1-yl)isoquinoline Hydrochloride] | 143 to 145 °C
CCN1CCN(c2nc(-c3ccc(C(=O)NC)cc3)cc3ccccc23)CC1 (as salt: hydrochloride) [Example 365, 1-(4-ethylpiperazin-1-yl)-3-[4-(N-methylcarbamoyl)phenyl]isoquinoline dihydrochloride] | 161.5 to 163 °C
CCCC(=O)NCc1ccc(-c2cc3ccccc3c(N3CCN(CC)CC3)n2)cc1 (as salt: hydrochloride) [Example 86, 3-(4-Propylcarbonylaminomethylphenyl)-1-(4-ethylpiperazin-1-yl)isoquinoline Hydrochloride] | 126 to 128 °C
CCN1CCN(c2nc(-c3ccc(OC)cc3)c(Cl)c3ccccc23)CC1 (as salt: hydrochloride) | 200.5 to 201.5 °C (dec.)
CCN1CCN(c2nc(-c3ccc(S(C)(=O)=O)nc3)cc3ccccc23)CC1 (as salt: hydrochloride) [Example 129, 3-[(2-Methylsulfonylpyridin)-5-yl]-1-(4-Ethylpiperazin-1-yl)Isoquinoline Hydrochloride] | 248 to 250 °C
CCN1CCN(c2nc(C3=CCCc4c(OC)cccc43)cc3ccccc23)CC1 (as salt: oxalate) | 136 to 139 °C

Next, values leading:

melting point | Compound
136 to 140 °C | CCN1CCN(c2nc(-c3ccc(OCC(C)O)cc3)cc3cccnc23)CC1 (stereo in doubt) (as salt: hydrochloride) [Example 246, 8-(1-ethylpiperazin-4-yl)-6-{4-[(S)-2-hydroxypropoxy}phenyl]-1,7-naphthyridine Dihydrochloride]
122 to 124 °C | CCN1CCN(c2nc(-c3ccc(CCC(C)O)cc3)cc3sccc23)CC1 (stereo not drawn) (as salt: hydrochloride) [Example 285, 4-(1-ethylpiperazin-4-yl)-6-[4-(3-hydroxybutyl)phenyl]thieno[3,2-c]pyridine hydrochloride]
108 to 110 °C | CCN1CCN(c2nc(C3CCc4c(OC)cccc43)cc3ccccc23)CC1 (stereo not drawn) (as salt: hydrochloride) [Example 113, 3-(4-Methoxyindan-1-yl)-1-(4-ethylpiperazin-1-yl)isoquinoline Hydrochloride]
106 to 108 °C | CCN1CCN(c2nc(-c3ccc(C(C)CCO)cc3)cc3ccccc23)CC1 (stereo not drawn) (as salt: oxalate) [Example 383, 1-(4-Ethylpiperazin-1-yl)-3-[4-(3-Hydroxy-1-Methylpropyl)Phenyl]Isoquinoline Oxalate]
238.5 to 240 °C (dec.) | CCN1CCN(c2nc(-c3ccc(S(=O)(=O)N4CCCC4)cc3)cc3ccccc23)CC1 (as salt: hydrochloride) [Example 356, 1-(4-ethylpiperazin-1-yl)-3-[4-(pyrrolidin-1-yl)sulfonylphenyl]isoquinoline dihydrochloride]
157 to 160 °C | CCN1CCN(c2nc(-c3ccc(OC)c(CCCO)c3)cc3ccccc23)CC1 (as salt: hydrochloride) [Example 34, 3-[3-(3-hydroxypropyl)-4-methoxyphenyl]-1-(4-ethylpiperazin-1-yl)isoquinoline hydrochloride]
88 to 90 °C | CCN1CCN(c2nc(/C=C/c3ccc(N4CCOCC4)nn3)cc3ccccc23)CC1 (as salt: oxalate) [Example 214, 3-{(E)-2-[3-(4-Morpholinyl)Pyridazin-6-Yl]Ethenyl}-1-(4-Ethylpiperazin-1-Yl)Isoquinoline Oxalate]
134 to 136 °C | COc1ccc(-c2cc3ccccc3c(N3CCN(C)CC3)n2)cc1 (as salt: hydrochloride) [Example 2, 1-(1-methylpiperazin-4-yl)-3-(4-methoxyphenyl)isoquinoline]
190 to 193 °C | CCN1CCN(c2nc(-c3csc(C4=CCOCC4)c3)cc3ccccc23)CC1 (as salt: hydrochloride)
113 to 115 °C | CCN1CCN(c2nc(-c3ccc(OC(F)(F)F)cc3)cc3ccccc23)CC1 (as salt: hydrochloride) [Example 339, 1-(4-ethylpiperazin-1-yl)-3-(4-trifluoromethoxyphenyl)isoquinoline dihydrochloride]
126 to 127 °C | CCN1CCN(c2nc(-c3ccc(OCCCO)cc3)cc3ccsc23)CC1 (as salt: hydrochloride) [Example 434, 7-(4-ethylpiperazin-1-yl)-5-[4-(3-hydroxypropoxy)phenyl]thieno[2,3-c]pyridine dihydrochloride]
134 to 136 °C | CCN1CCN(c2nc(-c3ccc(CCO)cc3)cc3ccccc23)CC1 (as salt: hydrochloride) [Example 351, 1-(4-ethylpiperazin-1-yl)-3-[4-(2-hydroxyethyl)phenyl]isoquinoline dihydrochloride]
218 to 220 °C | CCN1CCN(c2nc(-c3ccc(OC)cc3)cc3cc(OC)ccc23)CC1 (as salt: hydrochloride)
131 to 135 °C | CCN1CCN(c2nc(-c3ccc(OC)cc3)cc3cc(F)ccc23)CC1 (as salt: hydrochloride)
213 to 215 °C (dec.) | CCN1CCN(c2nc(-c3ccc(S(=O)(=O)CCCO)cc3)cc3ccccc23)CC1 (as salt: hydrochloride) [Example 352, 1-(4-ethylpiperazin-1-yl)-3-[4-(3-hydroxypropyl)sulfonylphenyl]isoquinoline dihydrochloride]
143 to 145 °C | CCN1CCN(c2nc(/C=C/c3ccc(OCCO)cc3)cc3ccsc23)CC1 (as salt: hydrochloride) [Example 431, 7-(4-ethylpiperazin-1-yl)-5-[4-(2-hydroxyethoxy)styryl]thieno[2,3-c]pyridine hydrochloride]
163 to 165 °C | CCCS(=O)(=O)Nc1ccc(-c2cc3ccccc3c(N3CCN(CC)CC3)n2)cc1 (as salt: hydrochloride) [Example 72, 3-(4-Propylsulfonylaminophenyl)-1-(4-Ethylpiperazin-1-Yl)Isoquinoline Hydrochloride]

— US6875761B2 (Eisai Co., Ltd., priority 1997, dated 2005)
